How the values were obtained:
[1] = test system: human umbilial vein endothelial cells (HUVECs); conditions: previous finding; cited from earlier work
[2] = test system: VEGF-induced angiogenesis; conditions: previous finding; cited from earlier work
[3] = test system: Human umbilical vein endothelial cells (HUVECs); test: [3H]thymidine incorporation assay: VEGF-induced cell proliferation (DNA synthesis) of HUVECs; type: cell-based; conditions: VEGF 10 ng/mL
Method: (§1) Human umbilical vein endothelial cells were incubated in the absence (basal and control) or presence of tested sample (YD-3, 10, 15, 17, 21, 25, 26) with 30 μM, and then vascular endothelial growth factor (VEGF) was added (except for basal) to induce DNA synthesis, which was detected using [^3H] thymidine incorporation assay.
as §1, with “10” for “30”, “inducd” for “induce”, “assay. Means±S.E. (n=5) were presented.” for “assay.”
as §1, with “1” for “30”, “inducd” for “induce”, “assay. Means±S.E. (n=5) were presented.” for “assay.”
(§2) Human umbilical vein endothelial cells (HUVECS) were isolated according to the protocols from Jaffe et al. and obtained from human umbilical cord veins with collagenase and cultured in 75 cm^2 plastic flasks in M199 containing 20% FBS, 15 μg/mL endothelial cell growth supplements (ECGs). Confirmation of their identity as endothelial cells was provided by detection of CD31 (PECAM-1), assessed by immunostaining. Experiments were conducted on HUVECs that had used in passage 2 to 5.
Confluent HUVECs were trypsinized, suspended in DMEM supplemented with 20% FBS, and seeded at 1.0×10^4 cells per well into 96-well plates. After 24 h, the cells were washed twice with PBS and starved with 2% FBS-M199 medium for 24 h. The cells were incubated with or without indicated reagents and growth factors (VEGF; 10 ng/mL) for 24 h and harvested. Before the harvest, cells were incubated with [^3H]thymidine (2 μCi/mL) for 4 h, harvested with Filter-Mate (Packard), and incorporated radioactivity was determined.
The effect of tested compounds on VEGF-induced cell proliferation of HUVECs was assessed with the [^3H]thymidine incorporation assay, and the results were illustrated in FIG. 5-FIG. 7.

[4] = test system: VEGF-induced angiogenesis in Matrigel plug; test: In vivo Matrigel plug assay (neovascular formation, hemoglobin concentration); conditions: nude mice, FIG. 9
Method: Nude mice were subcutaneously injected with a Matrigel plug containing 150 ng/ml vascular endothelial growth factor (VEGF). Vehicle or tested sample (YD-3, 10, 15, 17, 21, 25, 26) was orally administered into the mice. After a seven-day administration, the animals were euthanized and the plugs were cut of the mice for the measurement of angiogenic effect using the hemoglobin concentration as the parameter by means of a hemoglobin detection kit (Sigma). Means±S.E. (n=3) were presented. Nude mice (6 weeks of age) were given s.c. injections of 500 μL of Matrigel (Becton Dickinson, Bedford, Mass.) at 4° C. with or without YC-1 and growth factor (150 ng/mL VEGF). After injection, the Matrigel rapidly formed a plug. After 7 days, the skin of the mouse was easily pulled back to expose the Matrigel plug, which remained intact. After quantitative differences were noted and photographed, hemoglobin was measured, as an indication of blood vessel formation, using the Drabkin method (Drabkin reagent kit 525, Sigma, St. Louis, Mo.). The concentration of hemoglobin was calculated from a known amount of hemoglobin assayed in parallel. The in vivo Matrigel plug assay was used in this study to determine quantitative the anti-angiogenic effect of tested compounds.

angiogenesis = test: Evaluation for anti-angiogenic activities (overall summary); conditions: summary statement
Method: 3-(4-Methylphenyl)-1H-indazole (10) and N^2-(substituted benzyl)-3-(4-methylphenyl)indazoles (15, 17, 21, 25, 26) were evaluated for anti-angiogenic activities.
In this study, 3-(4-methylphenyl)-1H-indazole (10) and five of the above mentioned N^2-regioisomers, namely, compounds 15, 17, 21, 25 and 26 were selected for evaluating their effects on VEGF-induced cell proliferation, on VEGF-induced tube formation of HUVECs in vitro, and on neovascular formation in vivo.

[5] = test system: Human umbilical vein endothelial cells (HUVECs); test: VEGF-induced tube formation of HUVECs on Matrigel; type: cell-based; conditions: FIG. 8
Method: FIG. 8 show photographs of the results of in vitro assay (inhibition of tube formation). Human umbilical vein endothelial cells were cultured onto chamberslide, which was precoated with Matrigel (10 mg/ml). Cells were treated without (basal and control) or with tested sample (YD-3, 10, 15, 17, 21, 25, 26) and then vascular endothelial growth factor (VEGF) was added to induce tube formation. All photographs were taken at 100×magnification.
as §2

[6] = test system: thrombin-induced Ca++ signal and thromboxane production; conditions: previous work; cited from earlier work
[7] = biological target: T1, protease activated receptor (PAR)-4 (Homo sapiens, UniProt Q96RI0); conditions: previous works; cited from earlier work
T1 sequence (Q96RI0 18-385): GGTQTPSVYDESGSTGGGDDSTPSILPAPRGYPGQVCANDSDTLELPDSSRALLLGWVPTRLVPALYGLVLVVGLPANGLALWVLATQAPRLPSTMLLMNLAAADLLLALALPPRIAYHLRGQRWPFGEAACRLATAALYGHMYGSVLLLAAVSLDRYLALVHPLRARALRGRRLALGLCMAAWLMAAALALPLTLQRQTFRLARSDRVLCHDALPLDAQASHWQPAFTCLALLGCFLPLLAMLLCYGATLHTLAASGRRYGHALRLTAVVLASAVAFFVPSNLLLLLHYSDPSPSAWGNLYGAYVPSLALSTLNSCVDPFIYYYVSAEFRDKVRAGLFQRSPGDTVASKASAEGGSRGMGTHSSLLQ

Row | melting point [°C] | Compound | inhibition of VEGF-induced cell proliferation in HUVECs [1] | inhibition of VEGF-induced migration in HUVECs [1] | inhibition of VEGF-induced tube formation in HUVECs [1] | inhibition of VEGF-induced angiogenesis in Matrigel plug animal model [2] | activity on VEGF-induced cell proliferation of HUVECs compared with positive control YD-3 ([3]; 1 μM) | inhibitory effect on VEGF-induced cell proliferation of HUVECs ([3H]thymidine incorporation) ([3]; 10 μM, FIG. 6) | inhibitory effect on VEGF-induced cell proliferation of HUVECs ([3H]thymidine incorporation) ([3]; 30 μM, FIG. 5) | anti-angiogenic activity in Matrigel plug assay (hemoglobin concentration) ([4]; 150 ng/ml VEGF plug, oral, seven-day administration) | anti-angiogenic potency in Matrigel plug assay compared with positive control YD-3 [4] | anti-angiogenic activity (overall) (angiogenesis) | inhibitory activity on tube formation compared with other tested compounds and YD-3 [5] | blockage of VEGF-induced tube formation of HUVECs ([5]; Matrigel-coated chamberslide) | inhibition of low thrombin-induced Ca++ signal [6] | inhibition of low thrombin-induced thromboxane production [6] | inhibition of PAR-4-dependent activation [7]
1 | – | O=C(O)c1ccc(-c2nn(Cc3ccccc3)c3ccccc23)cc1 [CHS-6, 4-(1-benzyl-1H-indazol-3-yl)benzoic acid] | inhibit | inhibit | inhibit | inhibit | – | – | – | – | – | – | – | – | – | – | –
2 | 113.6 to 115 | COc1ccc(Cn2nc3ccccc3c2-c2ccc(C)cc2)cc1 [Compound 25, 2-(4-Methoxylbenzyl)-3-(4-methylphenyl)-2H-indazole] | – | – | – | – | better activity than positive control YD-3 | significant inhibitory effect | significant inhibitory effect | significant anti-angiogenic activities | superior potency than the positive control YD-3 | significant anti-angiogenic activity | more potent than other tested compounds and YD-3 | significant blockage | – | – | –
3 | – | CCOC(=O)c1ccc(-c2nn(Cc3ccccc3)c3ccccc23)cc1 [YD-3, Ethyl 4-(1-benzyl-1H-indazol-3-yl)benzoate] | inhibit | inhibit | inhibit | inhibit | – | significant inhibitory effect | significant inhibitory effect | – | – | – | – | – | effectively inhibits | effectively inhibits | selective and potent inhibitor

From US20060106032A1, “Synthesis of N2 - (substituted arylmethyl) -3- (substituted phenyl) indazoles as novel anti-angiogenic agents” (YUNG SHIN PHARM. IND. CO., LTD., priority 2004, published 2006)
